Experimental data published in patent US20260317329A1, “DRUG LINKERS AND ANTIBODY CONJUGATES THEREOF” (Ambrx, Inc., priority 2022, published 2026).

How the values were obtained:
Type in all cases: cell-based
[1] = tested on: 786-O (CD70 positive) cells; test: In vitro cytotoxicity in CD70 positive 786-O cells (CellTiter-Glo 2.0, 4 days); conditions: Homo sapiens; for Emax at 0.025 µM: maximal killing at 25 nM
Protocol: (§1) Small molecule duocarmycin analogs (compounds 4, 13, 15, 17 and 38) and anti-CD70 ADCs (anti-CD70-12, anti-CD70-14, anti-CD70-16 and anti-CD70-18) were evaluated for cytotoxicity. Briefly, 786-0 (CD70 positive) cells were seeded into 96-well clear bottom white plate at 1,000 cells/well and incubated overnight in a 37° C. and 5% CO2 incubator. NCI-H929 (CD70 negative) cells were seeded 30,000 cells/well just before the time of treatment of test articles. The serially diluted small molecule drugs or anti-CD70 ADCs were added to the wells and the plates were incubated for 4 days in a 37° C. and 5% CO2 incubator. At the end of incubation, CellTiter-Glo2.0 Reagent (Promega, Madison, WI) was added to the room temperature equilibrated plates and luminescence was measured in a SpectraMax M5E plate reader. The relative viability was calculated as a percentage of untreated cells. The half-maximal inhibitory concentration (IC50) was determined by a nonlinear 4-parameter dose-response curve fitting using GraphPad Prism (GraphPad Software, San Diego, CA). The maximal killing (Emax) was determined by subtracting the % viability at the indicated dose from 100%.

[2] = tested on: NCI-H929 (CD70 negative) cells; test: In vitro cytotoxicity in CD70 negative NCI-H929 cells (CellTiter-Glo 2.0, 4 days); conditions: Homo sapiens, 96 h; for Emax at 0.025 µM: maximal killing at 25 nM
Protocol: as §1

[3] = tested on: SNU449 (GPC3 negative) cells; test: In vitro cytotoxicity in GPC3 negative SNU449 cells (CellTiter-Glo 2.0, 3 days); conditions: Homo sapiens, SNU-449, 72 h; for Emax at 0.03 µM: maximal killing at 30 nM
Protocol: (§2) Anti-GPC3 ADCs were prepared via conjugation of GPC3 clone 1 mAb containing non-natural amino acid pAF with each of compounds 12, 14, 16 and 18. The corresponding ADCs (hereinafter, anti-GPC3-12, anti-GPC3-14, anti-GPC3-16 and anti-GPC3-18 respectively) and small molecule duocarmycin analogs (compounds 15 and 17) were evaluated for cytotoxicity. Briefly, HepG2 and SNU449 cells were seeded into 96-well white opaque plate at 3,000 cells/well and incubated overnight in a 37° C. and 5% CO2 incubator. The serially diluted small molecule drugs or anti-GPC3 ADCs were added to the wells and the plates were incubated for 3 days in a 37° C. and 5% CO2 incubator. At the end of incubation, CellTiter-Glo2.0 Reagent (Promega, Madison, WI) was added to the room temperature equilibrated plates and luminescence was measured in a SpectraMax M5E plate reader. The relative viability was calculated as a percentage of untreated cells. The half-maximal inhibitory concentration (IC50) was determined by a nonlinear 4-parameter dose-response curve fitting using GraphPad Prism (GraphPad Software, San Diego, CA). The maximal killing (Emax) was determined by subtracting the % viability at the indicated dose from 100%.

[4] = tested on: HepG2 (GPC3 positive) cells; test: In vitro cytotoxicity in GPC3 positive HepG2 cells (CellTiter-Glo 2.0, 3 days); conditions: Homo sapiens, 72 h; for Emax at 0.03 µM: maximal killing at 30 nM
Protocol: as §2

[5] = 786-0, 96 h, 786-O (CD70 Positive), 4 days

Row | Compound | IC50 [1, 5] [nM] | Emax at 0.025 µM [1, 5] [%] | IC50 [2] [nM] | Emax at 0.025 µM [2] [%] | IC50 [3] [nM] | Emax at 0.03 µM [3] [%] | IC50 [4] [nM] | Emax at 0.03 µM [4] [%] | IC50 ([1]; 786-0 (CD70-positive), first test of benchmark free drug and ADC) [nM]
1 | COc1cc2cc(C(=O)N3C[C@@H](CCl)c4c3cc(O)c3[nH]c(C(=O)N5CCc6ccccc65)cc43)[nH]c2c(OC)c1OC [Compound 4, (S)-(8-(chloromethyl)-4-hydroxy-6-(5,6,7-trimethoxy-1H-indole-2-carbonyl)-3,6,7,8-tetrahydropyrrolo[3,2-e]indol-2-yl)(indolin-1-yl)methanone] | 0.0089 | 99 | 0.804 | 99.7 |  |  |  |  | 
2 | COc1cc2c(cc1OC)N(C(=O)c1cc3c4c(cc(O)c3[nH]1)N(C(=O)c1cc3cc(OC)c(OC)c(OC)c3[nH]1)C[C@H]4CCl)CC2 [Compound 13] | 0.0166 | 99.2 | 1.79 | 99.5 |  |  |  |  | 
3 | COc1cc2cc(C(=O)N3C[C@@H](CCl)c4c3cc(O)c3[nH]c(C(=O)N5CCc6ccncc65)cc43)[nH]c2c(OC)c1OC [Compound 15] | 0.0626 | 98.1 | 9.12 | 82.4 | 0.427 | 91.1 | 0.41 | 96.5 | 
4 | COc1cc2cc(C(=O)N3C[C@@H](CCl)c4c3cc(O)c3[nH]c(C(=O)N5CCc6cc(OCCN7CCOCC7)ccc65)cc43)[nH]c2c(OC)c1OC [Compound 17] | 0.0179 | 99.3 | 2.59 | 97.6 | 0.245 | 94.2 | 0.217 | 97.6 | 
5 | COc1cc2cc(C(=O)N3C[C@@H](CCl)c4c3cc(O)c3ccccc43)[nH]c2c(OC)c1OC [Compound 38, reference compound] | 0.561 | 97.4 | 0.791 | 99.5 |  |  |  |  | 
6 | COC(=O)c1cc2c3c(cc(O)c2[nH]1)N(C(=O)c1cc2cc(OC)c(OC)c(OC)c2[nH]1)C[C@H]3CCl [Compound 39, (S)-seco-duocarmycin SA, reference compound] |  |  |  |  |  |  |  |  | 0.065
